Measurements from ChEMBL document CHEMBL5465560, “Selectivity Literature for EUbOPEN Chemogenomic Library” (2024).
One block for each molecule: values may come before it.

What was measured:
[1] = molecular target: T1, Serine/threonine-protein kinase BRSK2 (Homo sapiens) (UniProt Q8IWQ3); test: Selectivity interaction (KinomeScan (DiscoverX)) EUB0001049a BRSK2; conditions: at 1 µM
T1 sequence (whole entry): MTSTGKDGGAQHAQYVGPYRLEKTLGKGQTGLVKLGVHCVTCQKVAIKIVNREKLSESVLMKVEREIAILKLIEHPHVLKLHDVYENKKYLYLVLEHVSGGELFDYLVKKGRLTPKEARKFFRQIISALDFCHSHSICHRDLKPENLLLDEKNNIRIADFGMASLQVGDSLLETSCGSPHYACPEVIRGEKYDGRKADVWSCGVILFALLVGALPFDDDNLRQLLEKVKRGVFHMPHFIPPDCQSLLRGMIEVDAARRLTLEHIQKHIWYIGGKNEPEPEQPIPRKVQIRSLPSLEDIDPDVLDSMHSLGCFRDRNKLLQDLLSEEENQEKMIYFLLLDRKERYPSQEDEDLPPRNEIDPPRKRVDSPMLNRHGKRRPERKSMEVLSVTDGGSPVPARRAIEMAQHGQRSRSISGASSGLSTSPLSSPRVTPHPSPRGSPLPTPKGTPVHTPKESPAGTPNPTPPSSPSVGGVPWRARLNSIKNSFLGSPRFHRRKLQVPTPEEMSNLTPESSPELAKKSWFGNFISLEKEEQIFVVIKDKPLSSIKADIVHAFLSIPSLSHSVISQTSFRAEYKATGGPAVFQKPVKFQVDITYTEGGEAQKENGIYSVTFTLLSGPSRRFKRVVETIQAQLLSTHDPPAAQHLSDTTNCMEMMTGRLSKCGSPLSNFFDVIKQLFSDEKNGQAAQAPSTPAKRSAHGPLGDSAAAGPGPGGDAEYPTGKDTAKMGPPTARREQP

[2] = molecular target: Growth hormone secretagogue receptor type 1 (Homo sapiens, UniProt Q92847); test: Selectivity interaction (Ghrelin receptor binding assay, human recombinant ) EUB0000877a […]
Growth hormone secretagogue receptor type 1, sequence (Q92847 whole entry): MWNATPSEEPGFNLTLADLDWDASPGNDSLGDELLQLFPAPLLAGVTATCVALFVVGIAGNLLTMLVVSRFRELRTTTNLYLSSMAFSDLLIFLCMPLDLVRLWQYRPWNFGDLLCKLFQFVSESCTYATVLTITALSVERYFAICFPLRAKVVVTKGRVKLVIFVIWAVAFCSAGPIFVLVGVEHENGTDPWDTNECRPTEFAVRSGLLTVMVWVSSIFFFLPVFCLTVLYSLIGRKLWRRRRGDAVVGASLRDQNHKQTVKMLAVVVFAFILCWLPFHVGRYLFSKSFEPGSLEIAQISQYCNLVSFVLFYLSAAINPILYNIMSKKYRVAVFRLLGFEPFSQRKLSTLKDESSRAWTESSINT

[3] = molecular target: Mitogen-activated protein kinase 3 (Homo sapiens, UniProt P27361); conditions: at 10 µM
Mitogen-activated protein kinase 3, sequence (P27361 whole entry): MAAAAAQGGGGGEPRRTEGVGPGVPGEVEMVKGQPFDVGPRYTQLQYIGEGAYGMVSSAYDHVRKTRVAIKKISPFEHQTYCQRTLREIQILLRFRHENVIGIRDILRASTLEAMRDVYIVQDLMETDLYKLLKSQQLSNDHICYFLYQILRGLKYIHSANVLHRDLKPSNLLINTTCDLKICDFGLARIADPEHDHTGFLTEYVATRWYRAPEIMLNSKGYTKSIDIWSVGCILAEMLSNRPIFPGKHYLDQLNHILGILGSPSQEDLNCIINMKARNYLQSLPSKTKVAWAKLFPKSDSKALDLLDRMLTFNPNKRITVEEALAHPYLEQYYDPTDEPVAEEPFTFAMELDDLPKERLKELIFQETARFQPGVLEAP

[4] = molecular target: RAC-gamma serine/threonine-protein kinase (Homo sapiens, UniProt Q9Y243); test: Selectivity interaction (KinomeScan (DiscoverX)) EUB0000092b AKT3; conditions: at 10 µM
RAC-gamma serine/threonine-protein kinase, sequence (Q9Y243 whole entry): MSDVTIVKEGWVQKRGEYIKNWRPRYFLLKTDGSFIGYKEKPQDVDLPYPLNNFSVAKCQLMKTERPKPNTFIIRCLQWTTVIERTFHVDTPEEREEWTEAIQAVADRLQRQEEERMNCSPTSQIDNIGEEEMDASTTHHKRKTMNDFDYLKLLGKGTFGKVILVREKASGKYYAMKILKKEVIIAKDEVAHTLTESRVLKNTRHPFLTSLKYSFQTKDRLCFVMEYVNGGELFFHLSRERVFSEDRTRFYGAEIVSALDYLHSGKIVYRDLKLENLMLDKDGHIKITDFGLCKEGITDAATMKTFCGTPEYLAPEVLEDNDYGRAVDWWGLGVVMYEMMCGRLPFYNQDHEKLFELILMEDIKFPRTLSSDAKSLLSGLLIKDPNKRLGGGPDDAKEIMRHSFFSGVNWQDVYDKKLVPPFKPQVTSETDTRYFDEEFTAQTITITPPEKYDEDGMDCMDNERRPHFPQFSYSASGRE

[5] = molecular target: Dual specificity mitogen-activated protein kinase kinase 1 (Homo sapiens, UniProt Q02750); test: Selectivity interaction (Upstate Kinase Profiler service (Millipore)) EUB0000056c MAP2K1; conditions: at 1 µM
Dual specificity mitogen-activated protein kinase kinase 1, sequence (Q02750 whole entry): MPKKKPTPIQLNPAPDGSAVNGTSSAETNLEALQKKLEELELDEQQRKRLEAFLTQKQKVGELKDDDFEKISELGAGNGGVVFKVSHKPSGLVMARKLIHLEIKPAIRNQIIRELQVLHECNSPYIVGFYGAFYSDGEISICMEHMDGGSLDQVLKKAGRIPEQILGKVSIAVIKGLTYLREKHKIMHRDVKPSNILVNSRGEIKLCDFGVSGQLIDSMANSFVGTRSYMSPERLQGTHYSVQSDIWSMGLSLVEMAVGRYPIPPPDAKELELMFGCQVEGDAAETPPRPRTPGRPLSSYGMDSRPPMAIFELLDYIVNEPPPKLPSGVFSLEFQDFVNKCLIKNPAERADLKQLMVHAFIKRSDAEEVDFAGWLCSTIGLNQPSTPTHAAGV

[6] = molecular target: Glycogen synthase kinase-3 beta (Homo sapiens, UniProt P49841); test: Selectivity interaction (KinomeScan (DiscoverX)) EUB0001619a GSK3B; conditions: at 1 µM
Glycogen synthase kinase-3 beta, sequence (P49841 whole entry, looked up): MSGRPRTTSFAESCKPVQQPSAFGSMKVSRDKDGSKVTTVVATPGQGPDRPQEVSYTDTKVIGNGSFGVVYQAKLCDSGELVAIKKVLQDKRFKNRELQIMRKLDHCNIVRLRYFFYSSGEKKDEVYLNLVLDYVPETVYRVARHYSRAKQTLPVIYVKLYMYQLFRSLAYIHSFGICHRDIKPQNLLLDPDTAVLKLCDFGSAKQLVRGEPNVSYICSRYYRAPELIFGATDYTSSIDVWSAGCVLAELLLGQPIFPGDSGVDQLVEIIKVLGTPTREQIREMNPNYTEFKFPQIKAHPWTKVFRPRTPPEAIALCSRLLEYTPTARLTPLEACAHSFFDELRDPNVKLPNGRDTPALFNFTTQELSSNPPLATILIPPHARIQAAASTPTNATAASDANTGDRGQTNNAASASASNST

Insulin receptor = Insulin receptor (Homo sapiens, UniProt P06213); test: Selectivity interaction (KinomeScan (DiscoverX)) EUB0001619a INSR; conditions: at 1 µM
Insulin receptor, sequence (P06213 28-758 limits assumed): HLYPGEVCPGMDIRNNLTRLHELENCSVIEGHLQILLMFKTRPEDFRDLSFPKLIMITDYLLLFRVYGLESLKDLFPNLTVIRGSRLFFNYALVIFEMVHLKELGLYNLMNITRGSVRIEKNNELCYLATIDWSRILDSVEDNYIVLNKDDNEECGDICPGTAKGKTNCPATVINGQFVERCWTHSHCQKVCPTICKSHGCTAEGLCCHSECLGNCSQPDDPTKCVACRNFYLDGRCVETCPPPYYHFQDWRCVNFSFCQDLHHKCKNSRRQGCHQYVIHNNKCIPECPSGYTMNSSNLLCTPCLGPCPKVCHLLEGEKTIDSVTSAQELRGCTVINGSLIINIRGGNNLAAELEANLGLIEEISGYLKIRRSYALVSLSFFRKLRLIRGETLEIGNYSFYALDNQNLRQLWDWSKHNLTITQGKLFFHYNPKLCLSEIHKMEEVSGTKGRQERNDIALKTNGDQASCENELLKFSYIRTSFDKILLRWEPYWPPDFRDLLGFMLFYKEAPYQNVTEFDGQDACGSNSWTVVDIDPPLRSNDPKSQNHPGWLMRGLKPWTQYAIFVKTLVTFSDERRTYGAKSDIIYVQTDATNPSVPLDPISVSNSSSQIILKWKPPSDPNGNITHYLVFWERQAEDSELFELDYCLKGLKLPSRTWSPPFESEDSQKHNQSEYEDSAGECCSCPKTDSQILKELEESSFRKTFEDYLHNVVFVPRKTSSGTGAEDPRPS
Insulin receptor, sequence (P06213 763-1382 limits assumed): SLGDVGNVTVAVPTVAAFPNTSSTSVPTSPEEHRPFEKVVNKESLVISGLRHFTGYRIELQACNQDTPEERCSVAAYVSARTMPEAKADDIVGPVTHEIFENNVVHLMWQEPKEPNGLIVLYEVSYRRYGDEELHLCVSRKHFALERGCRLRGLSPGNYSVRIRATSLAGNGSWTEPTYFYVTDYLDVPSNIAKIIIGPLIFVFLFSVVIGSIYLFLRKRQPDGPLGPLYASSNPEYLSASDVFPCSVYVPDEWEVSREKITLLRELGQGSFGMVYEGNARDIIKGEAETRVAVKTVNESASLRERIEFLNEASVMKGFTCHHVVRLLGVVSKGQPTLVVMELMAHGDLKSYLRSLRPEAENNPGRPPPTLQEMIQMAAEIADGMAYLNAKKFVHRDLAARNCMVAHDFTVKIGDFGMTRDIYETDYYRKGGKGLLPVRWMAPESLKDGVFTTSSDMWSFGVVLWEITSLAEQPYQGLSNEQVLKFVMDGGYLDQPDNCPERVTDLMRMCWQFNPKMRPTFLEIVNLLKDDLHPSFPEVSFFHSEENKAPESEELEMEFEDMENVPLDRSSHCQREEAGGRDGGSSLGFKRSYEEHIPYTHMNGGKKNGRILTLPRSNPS

[7] = molecular target: T2, Myosin light chain kinase family member 4 (Homo sapiens) (UniProt Q86YV6); test: Selectivity interaction (KinomeScan (DiscoverX)) EUB0000618a MYLK4; conditions: at 10 µM
T2 sequence (whole entry): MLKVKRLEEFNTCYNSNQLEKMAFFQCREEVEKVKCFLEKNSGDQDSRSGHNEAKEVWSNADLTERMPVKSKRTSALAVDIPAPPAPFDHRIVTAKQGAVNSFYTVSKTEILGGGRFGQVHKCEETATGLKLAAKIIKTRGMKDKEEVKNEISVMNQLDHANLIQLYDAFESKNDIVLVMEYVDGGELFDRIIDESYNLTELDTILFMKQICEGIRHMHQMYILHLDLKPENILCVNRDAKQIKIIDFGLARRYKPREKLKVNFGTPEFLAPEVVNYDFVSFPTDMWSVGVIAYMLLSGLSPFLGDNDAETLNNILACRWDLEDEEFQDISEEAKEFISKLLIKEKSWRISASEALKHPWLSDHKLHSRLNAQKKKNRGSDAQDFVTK

[8] = molecular target: T3, Dual specificity mitogen-activated protein kinase kinase 5 (Homo sapiens) (UniProt Q13163); test: Selectivity interaction (KinomeScan (DiscoverX)) EUB0000607a MAP2K5; conditions: at 10 µM
T3 sequence (whole entry): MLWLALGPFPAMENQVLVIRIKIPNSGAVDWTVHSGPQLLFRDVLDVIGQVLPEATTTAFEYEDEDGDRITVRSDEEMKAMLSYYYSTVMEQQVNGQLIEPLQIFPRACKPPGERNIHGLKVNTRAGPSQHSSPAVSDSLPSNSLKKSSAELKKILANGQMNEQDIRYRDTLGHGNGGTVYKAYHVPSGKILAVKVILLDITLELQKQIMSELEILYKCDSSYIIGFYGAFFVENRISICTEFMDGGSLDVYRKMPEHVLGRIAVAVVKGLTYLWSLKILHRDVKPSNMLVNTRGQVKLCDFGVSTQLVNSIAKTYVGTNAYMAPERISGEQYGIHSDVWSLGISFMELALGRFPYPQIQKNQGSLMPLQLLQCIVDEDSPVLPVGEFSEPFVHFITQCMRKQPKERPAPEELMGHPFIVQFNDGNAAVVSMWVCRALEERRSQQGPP

[9] = molecular target: Dual specificity protein kinase CLK4 (Homo sapiens, UniProt Q9HAZ1); test: Selectivity interaction (KinomeScan (DiscoverX)) EUB0000607a CLK4; conditions: at 10 µM
Dual specificity protein kinase CLK4, sequence (Q9HAZ1 whole entry, looked up): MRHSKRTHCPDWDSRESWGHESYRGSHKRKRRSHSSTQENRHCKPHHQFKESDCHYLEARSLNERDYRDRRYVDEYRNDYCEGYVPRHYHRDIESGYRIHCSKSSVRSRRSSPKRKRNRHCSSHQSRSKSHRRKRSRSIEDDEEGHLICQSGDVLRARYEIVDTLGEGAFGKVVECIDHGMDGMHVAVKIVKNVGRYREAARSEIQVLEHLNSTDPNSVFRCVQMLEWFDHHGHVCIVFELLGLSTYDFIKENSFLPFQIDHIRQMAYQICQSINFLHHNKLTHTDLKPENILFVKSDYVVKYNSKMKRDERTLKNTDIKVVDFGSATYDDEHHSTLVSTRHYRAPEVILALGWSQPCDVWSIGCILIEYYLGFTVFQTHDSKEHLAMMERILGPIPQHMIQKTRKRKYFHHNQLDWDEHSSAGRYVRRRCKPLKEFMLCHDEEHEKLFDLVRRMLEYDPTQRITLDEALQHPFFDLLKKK

[10] = molecular target: T4, Mitogen-activated protein kinase 12 (Homo sapiens) (UniProt P53778); test: Selectivity interaction (SelectScreen profiling (Invitrogen)) EUB0000607a MAPK12; conditions: at 2 µM
T4 sequence (whole entry): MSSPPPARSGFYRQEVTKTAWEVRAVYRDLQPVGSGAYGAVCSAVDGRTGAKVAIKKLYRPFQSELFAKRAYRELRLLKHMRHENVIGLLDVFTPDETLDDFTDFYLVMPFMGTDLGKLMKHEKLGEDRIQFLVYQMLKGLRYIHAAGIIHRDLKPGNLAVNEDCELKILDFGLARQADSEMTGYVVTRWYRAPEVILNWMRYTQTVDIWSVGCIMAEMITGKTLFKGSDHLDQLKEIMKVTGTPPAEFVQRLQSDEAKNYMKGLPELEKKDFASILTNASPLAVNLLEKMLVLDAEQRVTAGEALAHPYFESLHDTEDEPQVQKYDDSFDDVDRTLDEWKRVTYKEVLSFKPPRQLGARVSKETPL

[11] = molecular target: Casein kinase II subunit alpha' (Homo sapiens) (UniProt P19784); test: Selectivity interaction (KinomeScan (DiscoverX)) EUB0000666a CSNK2A2; conditions: at 10 µM
Casein kinase II subunit alpha' (Homo sapiens), sequence (P19784 whole entry, looked up): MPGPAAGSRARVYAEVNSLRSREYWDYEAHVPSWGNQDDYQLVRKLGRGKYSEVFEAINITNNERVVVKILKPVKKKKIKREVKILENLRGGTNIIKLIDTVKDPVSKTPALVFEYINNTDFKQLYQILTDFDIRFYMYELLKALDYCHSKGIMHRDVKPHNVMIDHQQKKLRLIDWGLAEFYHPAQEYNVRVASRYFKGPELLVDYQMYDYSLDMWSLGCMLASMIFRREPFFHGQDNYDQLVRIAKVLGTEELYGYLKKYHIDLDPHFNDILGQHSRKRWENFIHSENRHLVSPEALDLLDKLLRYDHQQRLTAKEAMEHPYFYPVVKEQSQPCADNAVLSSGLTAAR

[12] = molecular target: Serine/threonine-protein kinase 35 (Homo sapiens) (UniProt Q8TDR2); test: Selectivity interaction (KinomeScan (DiscoverX)) EUB0000666a STK35; conditions: at 10 µM
Serine/threonine-protein kinase 35 (Homo sapiens), sequence (Q8TDR2 whole entry): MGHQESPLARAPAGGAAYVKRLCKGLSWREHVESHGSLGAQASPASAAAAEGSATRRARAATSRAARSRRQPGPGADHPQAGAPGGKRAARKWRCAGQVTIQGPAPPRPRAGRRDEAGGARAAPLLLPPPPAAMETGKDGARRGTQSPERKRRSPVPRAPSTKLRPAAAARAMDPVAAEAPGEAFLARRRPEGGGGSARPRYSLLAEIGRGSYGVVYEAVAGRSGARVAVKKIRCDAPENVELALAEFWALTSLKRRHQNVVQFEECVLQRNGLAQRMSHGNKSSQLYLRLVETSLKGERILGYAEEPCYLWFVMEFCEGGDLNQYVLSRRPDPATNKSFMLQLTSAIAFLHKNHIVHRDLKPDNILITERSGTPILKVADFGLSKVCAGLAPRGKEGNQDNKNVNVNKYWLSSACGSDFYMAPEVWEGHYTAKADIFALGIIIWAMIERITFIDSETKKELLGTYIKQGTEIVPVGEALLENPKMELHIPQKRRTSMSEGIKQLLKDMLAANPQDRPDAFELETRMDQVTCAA

Compound: COc1cc(Nc2nc(C)cc(-c3cnn4nc(OC)ccc34)n2)cc(C(F)(F)F)c1
% of control [1]: 94%

IC50 [2]: > 30 µM
Compound: CCC(=O)N1CC[C@H](Nc2ncnc3c2CN(c2cnc(OC)c(C(F)(F)F)c2)CC3)C1 [LENIOLISIB]

% of control [3]: 100%
Compound: CCN(CC)CCCCNc1ncc2cc(-c3cc(OC)cc(OC)c3)c(NC(=O)NC(C)(C)C)nc2n1

Compound: CCC(=O)N1CCN(c2ccc(-n3c(=O)ccc4cnc5ccc(-c6cnc7ccccc7c6)cc5c43)cc2C(F)(F)F)CC1
% of control [4]: 77%

% of inhibition [5]: -8%
Compound: Cc1ccc(-c2ccc3c(ccc4sc5c(c43)NC[C@@H](C)NC5=O)n2)cn1

Compound: N#Cc1cccc(-c2c[nH]c3ncnc(N4CCOCC4)c23)c1
% of control [6]: 94% | % of control (Insulin receptor): 100%

Compound: O[C@H]1CC[C@H](Nc2ncc3nc(Nc4c(F)cc(F)cc4F)n([C@H]4CCOC4)c3n2)CC1
% of control [7]: 100%

Compound: CNC(=O)Nc1ccc(-c2nc(N3CC4CCC(C3)O4)c3cnn(C4CCC5(CC4)OCCO5)c3n2)cc1
% of control [8]: 93% | % of control [9]: 88% | % of inhibition [10]: -2%

Compound: O=C(NOC[C@H](O)CO)c1ccc(F)c(F)c1Nc1ccc(I)cc1F
% of control [11]: 100% | % of control [12]: 83%
